Data as given in ChEMBL document CHEMBL3425453, “Luciferin and derivatives as a DYRK selective scaffold for the design of protein kinase inhibitors” (Eur J Med Chem, 2015).

Biological target: Cyclin-dependent kinase 2 (Homo sapiens) (UniProt P24941)

| Tm | SMILES |
| --- | --- |
| 43.9 °C | O=C(O)[C@H]1CSC(c2ccc3cccc(O)c3n2)=N1 |
| 43.4 °C | O=C(O)[C@H]1CSC(c2ccc3cc(O)ccc3n2)=N1 |
